System: ddY mice
Assay: Tail suspension test (evaluation of motivation-enhancing effect)
Format: in vivo
Details: oral, in saline, n=5; 0.2 μmol/kg body weight; tail suspension test 30 minutes after administration
Procedure: Each of the prepared peptides was administered to mice (ddY mice (5-week-old male mice 24 to 28 g in body weight)) by the method shown below. The mice were then subjected to a tail suspension test for the evaluation of a motivation-enhancing effect.
Each peptide was dissolved in saline. The solution was orally administered to mice (n=5) such that each of peptides 3, 4, and 8 was administered in a dose of 0.3 mg/kg body weight and each of peptides 1, 2, 5, 6, and 7 was administered in a dose of 0.2 μmol/kg body weight. Control mice (n=5) were orally administered with only saline. Each of the mice was subjected to a tail suspension test in which the peptide of the present invention was evaluated for its efficacy to enhance motivation.
Thirty minutes after the administration of the peptide, each mouse was suspended with its tail fixed 30 cm above the floor. Subsequently, during a period of 6 minutes from the start of the test (0 minutes), the time (immobility time) during which the mouse remained in a motionless state, observed after the start of escape behavior, was measured, and the measurements were averaged. The motionless state is known as “despair state”. […] This means that materials effective in enhancing motivation in this test may be effective in treating, preventing, or ameliorating mood disorders. […]

| Substance | motivation-enhancing effect |
| --- | --- |
| QSQ [Peptide 1] | particularly high level of motivation-enhancing effect |
| SQK [Peptide 2] | particularly high level of motivation-enhancing effect |
